Consider two compounds from ChEMBL document CHEMBL4622965, “Structural Basis of Inhibition of Insulin-Regulated Aminopeptidase by a Macrocyclic Peptidic Inhibitor” (ACS Med Chem Lett, 2020).

Assay [1] concerns the target Endoplasmic reticulum aminopeptidase 2 (Homo sapiens, UniProt Q6P179). Nature of the assay: Inhibition of ERAP2 (unknown origin) using Arg-AMC as substrate by fluorescence based assay.
Assay [2] deals with Endoplasmic reticulum aminopeptidase 1 (Homo sapiens, UniProt Q9NZ08). Kind of assay: Inhibition of ERAP1 (unknown origin) using Leu-AMC as substrate by fluorescence based assay.
Chain of Endoplasmic reticulum aminopeptidase 1 (Q9NZ08 whole entry): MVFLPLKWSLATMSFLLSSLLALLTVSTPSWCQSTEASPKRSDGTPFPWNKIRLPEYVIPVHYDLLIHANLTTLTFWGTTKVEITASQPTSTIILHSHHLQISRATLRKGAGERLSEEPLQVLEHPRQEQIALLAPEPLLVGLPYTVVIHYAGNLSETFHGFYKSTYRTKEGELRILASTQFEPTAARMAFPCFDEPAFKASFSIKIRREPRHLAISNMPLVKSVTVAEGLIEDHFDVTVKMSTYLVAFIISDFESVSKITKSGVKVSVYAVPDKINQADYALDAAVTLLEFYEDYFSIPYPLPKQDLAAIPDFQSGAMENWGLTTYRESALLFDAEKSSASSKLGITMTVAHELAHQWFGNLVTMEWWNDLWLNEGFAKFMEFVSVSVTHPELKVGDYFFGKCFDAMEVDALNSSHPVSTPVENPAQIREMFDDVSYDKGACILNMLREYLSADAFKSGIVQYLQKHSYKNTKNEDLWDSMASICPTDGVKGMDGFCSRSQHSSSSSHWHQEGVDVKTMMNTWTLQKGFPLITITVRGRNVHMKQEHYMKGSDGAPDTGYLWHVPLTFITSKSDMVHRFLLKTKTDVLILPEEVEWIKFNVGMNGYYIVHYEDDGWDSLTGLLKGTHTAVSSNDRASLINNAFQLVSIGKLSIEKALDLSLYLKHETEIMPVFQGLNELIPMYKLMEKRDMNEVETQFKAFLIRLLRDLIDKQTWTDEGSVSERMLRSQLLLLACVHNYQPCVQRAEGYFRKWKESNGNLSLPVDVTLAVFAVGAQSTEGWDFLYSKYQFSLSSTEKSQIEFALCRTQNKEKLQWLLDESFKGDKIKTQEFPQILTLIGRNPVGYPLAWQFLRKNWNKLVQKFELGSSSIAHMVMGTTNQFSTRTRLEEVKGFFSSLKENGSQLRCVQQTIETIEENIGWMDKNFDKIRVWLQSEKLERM

Molecules are shown by their SMILES. Calls of active or inactive are those of the source. The calls are words filed in the database; no cut-off is given here.

Chain of Endoplasmic reticulum aminopeptidase 2 (Q6P179 whole entry): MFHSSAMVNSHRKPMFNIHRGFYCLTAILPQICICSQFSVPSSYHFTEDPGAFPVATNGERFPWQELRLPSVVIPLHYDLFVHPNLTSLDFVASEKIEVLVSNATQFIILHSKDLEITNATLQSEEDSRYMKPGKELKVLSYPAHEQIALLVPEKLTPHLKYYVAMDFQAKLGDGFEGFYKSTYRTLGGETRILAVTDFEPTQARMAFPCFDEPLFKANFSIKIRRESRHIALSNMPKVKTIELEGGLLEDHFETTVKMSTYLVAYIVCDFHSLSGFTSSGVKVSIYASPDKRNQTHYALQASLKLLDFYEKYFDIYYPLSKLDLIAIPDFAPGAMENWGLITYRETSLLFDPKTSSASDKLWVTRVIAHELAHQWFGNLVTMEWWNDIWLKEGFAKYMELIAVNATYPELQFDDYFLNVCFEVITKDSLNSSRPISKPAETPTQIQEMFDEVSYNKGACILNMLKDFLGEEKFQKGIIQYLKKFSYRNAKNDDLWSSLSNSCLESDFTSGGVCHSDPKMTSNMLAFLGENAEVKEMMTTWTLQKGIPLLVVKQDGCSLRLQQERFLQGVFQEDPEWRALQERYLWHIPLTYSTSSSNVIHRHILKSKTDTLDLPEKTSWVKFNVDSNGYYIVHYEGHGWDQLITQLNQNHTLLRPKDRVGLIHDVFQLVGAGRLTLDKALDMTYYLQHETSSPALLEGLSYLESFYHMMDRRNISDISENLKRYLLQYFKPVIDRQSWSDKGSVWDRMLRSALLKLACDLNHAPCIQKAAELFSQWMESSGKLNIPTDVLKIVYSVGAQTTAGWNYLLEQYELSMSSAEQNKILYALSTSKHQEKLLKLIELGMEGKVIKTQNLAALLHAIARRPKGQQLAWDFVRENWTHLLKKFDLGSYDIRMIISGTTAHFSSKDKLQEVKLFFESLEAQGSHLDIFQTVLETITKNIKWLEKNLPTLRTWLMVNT

In assay [1], `N[C@H]1CCSSC[C@@H](C(=O)NCc2ccccc2CC(=O)O)NC(=O)C[C@H](Cc2ccc(O)cc2)NC1=O` gave a half-inhibitory concentration (IC50) of 1.26 µM. Besides, in assay [2], the pIC50 result was “inactive”.
As for `CC[C@H](C)[C@H](NC(=O)[C@H](Cc1ccc(O)cc1)NC(=O)[C@@H](N)C(C)C)C(=O)N[C@@H](Cc1cnc[nH]1)C(=O)N1CCC[C@H]1C(=O)N[C@@H](Cc1ccccc1)C(=O)O` [ANGIOTENSIN IV], the IC50 is 7.94 µM in assay [1] and 79.4 µM in assay [2].
